For this test, the target named is T1, PPARγ (Homo sapiens, UniProt P37231).
T1 construct: gene PPARG; GAL4-PPARγ
T1 sequence (P37231 1-505): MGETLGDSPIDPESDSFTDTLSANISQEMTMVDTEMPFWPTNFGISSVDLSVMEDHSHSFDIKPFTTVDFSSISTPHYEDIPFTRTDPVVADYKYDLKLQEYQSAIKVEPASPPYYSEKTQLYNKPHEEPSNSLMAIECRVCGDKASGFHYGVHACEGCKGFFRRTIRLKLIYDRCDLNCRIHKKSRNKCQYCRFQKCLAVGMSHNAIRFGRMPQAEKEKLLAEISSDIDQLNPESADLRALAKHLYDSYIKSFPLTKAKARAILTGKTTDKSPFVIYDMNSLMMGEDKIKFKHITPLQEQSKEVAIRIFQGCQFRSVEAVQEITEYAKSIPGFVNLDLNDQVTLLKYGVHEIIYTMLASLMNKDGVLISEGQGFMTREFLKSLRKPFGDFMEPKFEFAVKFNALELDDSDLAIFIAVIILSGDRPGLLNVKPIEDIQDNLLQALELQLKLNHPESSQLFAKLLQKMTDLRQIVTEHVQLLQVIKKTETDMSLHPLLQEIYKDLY
In words: GAL4-PPARγ/GAL4-luc luciferase transactivation in transfected HEK-293T cells (reference full agonist). It is filed as cell-based.

On to `CN(CCOc1ccc(CC2SC(=O)NC2=O)cc1)c1ccccn1` (stereo not shown) [Rosiglitazone], for which the “GAL4-PPARγ/GAL4-luc luciferase transactivation in transfected HEK-293T cells (re)” value is recorded as “RGZ activates PPARγ by acting mainly through the canonical binding site”.
